These molecules were tested on HCV replicons (Huh-7 luc/neo cells, NS3-NS5B regions of HCV type 1b) (assay: Replicon assay (Huh-Luc luciferase, HCV RNA replication)). Details: Hepatitis C virus, Huh-7, 72 h, read-out: EC50 Replicon assay.
Type: cell-based
Source text: The compounds of formula (I) were examined for activity in the inhibition of HCV RNA replication in a cellular assay. […] The cellular assay was based on a bicistronic expression construct, as described by Lohmann et al. (1999) Science vol. 285 pp. 110-113 with modifications described by Krieger et al. (2001) Journal of Virology 75: 4614-4624, in a multi-target screening strategy. In essence, the method was as follows.
The assay utilized the stably transfected cell line Huh-7 luc/neo (hereafter referred to as Huh-Luc). This cell line harbors an RNA encoding a bicistronic expression construct comprising the wild type NS3-NS5B regions of HCV type 1b translated from an Internal Ribosome Entry Site (IRES) from encephalomyocarditis virus (EMCV), preceded by a reporter portion (FfL-luciferase), and a selectable marker portion (neo^R, neomycine phosphotransferase). The construct is bordered by 5′ and 3′ NTRs (non-translated regions) from HCV type 1b. Continued culture of the replicon cells in the presence of G418 (neo^R) is dependent on the replication of the HCV RNA. The stably transfected replicon cells that express HCV RNA, which replicates autonomously and to high levels, encoding inter alia luciferase, are used for screening the antiviral compounds.
The replicon cells were plated in 384 well plates in the presence of the test and control compounds which were added in various concentrations. Following an incubation of three days, HCV replication was measured by assaying luciferase activity (using standard luciferase assay substrates and reagents and a Perkin Elmer ViewLux™ ultraHTS microplate imager). Replicon cells in the control cultures have high luciferase expression in the absence of any inhibitor. The inhibitory activity of the compound on luciferase activity was monitored on the Huh-Luc cells, enabling a dose-response curve for each test compound. EC50 values were then calculated, which value represents the amount of the compound required to decrease by 50% the level of detected luciferase activity, or more specifically, the ability of the genetically linked HCV replicon RNA to replicate.
With `CN1CCCC/C=C\[C@@H]2C[C@@]2(C(=O)NS(=O)(=O)C2(C)CC2)NC(=O)[C@@H]2C[C@@H](OC(=O)Nc3cccc(N(C)C)c3)C[C@H]2C1=O` [Example 9, (3-Dimethylaminophenyl)-carbamic acid 13-methyl-4-(1-methyl-cyclopropane-sulfonylaminocarbonyl)-2,14-dioxo-3,13-diaza-tricyclo[13.3.0.0*4,6*]octadec-7-en-17-yl ester] the EC50 was 1000 to 10000 nM.

Same assay, conditions: Hepatitis C virus, Huh-7, 72 h; Huh-Luc cells, three days incubation, luciferase activity; read-out: EC50 Replicon assay
With `CN1CCCCC=CC2CC2(C(=O)NS(=O)(=O)C2CC2)NC(=O)C2CC(OC(=O)Nc3ccccc3C#N)CC2C1=O` (stereo not drawn) [Example 1, (2-Cyanophenyl)-carbamic acid 4-cyclopropanesulfonylaminocarbonyl-13-methyl-2,14-dioxo-3,13-diaza-tricyclo[13.3.0.0*4,6*]octadec-7-en-17-yl ester] the EC50 was > 10000 nM. Molecule `CN1CCCC/C=C\[C@@H]2C[C@@]2(C(=O)NS(=O)(=O)C2CC2)NC(=O)[C@@H]2C[C@@H](OC(=O)Nc3ccccc3Oc3ccccc3)C[C@H]2C1=O` [Example 2, (2-Phenoxyphenyl)-carbamic acid 4-cyclopropanesulfonylaminocarbonyl-13-methyl-2,14-dioxo-3,13-diaza-tricyclo[13.3.0.0*4,6*]octadec-7-en-17-yl ester] has an EC50 of 1000 to 10000 nM. In the case of `COc1ccccc1NC(=O)O[C@@H]1C[C@H]2C(=O)N[C@]3(C(=O)NS(=O)(=O)C4CC4)C[C@H]3/C=C\CCCCN(C)C(=O)[C@@H]2C1` [Example 3, (2-Methoxy-phenyl)-carbamic acid 4-cyclopropanesulfonylaminocarbonyl-13-methyl-2,14-dioxo-3,13-diaza-tricyclo[13.3.0.0*4,6*]octadec-7-en-17-yl ester], the EC50 is reported as 1000 to 10000 nM. Work on `COC(=O)c1cccc(NC(=O)O[C@@H]2C[C@H]3C(=O)N[C@]4(C(=O)NS(=O)(=O)C5CC5)C[C@H]4/C=C\CCCCN(C)C(=O)[C@@H]3C2)c1` [Example 5, 3-(4-Cyclopropanesulfonylaminocarbonyl-13-methyl-2,14-dioxo-3,13-diaza-tricyclo-[13.3.0.0*4,6*]octadec-7-en-17-yloxycarbonylamino)-benzoic acid methyl ester] yielded an EC50 of 1000 to 10000 nM. With `COc1ccc(C#N)cc1NC(=O)OC1CC2C(=O)NC3(C(=O)NS(=O)(=O)C4(C)CC4)CC3C=CCCCCN(C)C(=O)C2C1` (stereo not drawn) [Example 6c, (5-Cyano-2-methoxy-phenyl)-carbamic acid 13-methyl-4-(1-methyl-cyclopropanesulfonylaminocarbonyl)-2,14-dioxo-3,13-diaza-tricyclo[13.3.0.0*4,6*]-octadec-7-en-17-yl ester] the EC50 was > 10000 nM. For `COc1cccc(NC(=O)O[C@@H]2C[C@H]3C(=O)N[C@]4(C(=O)NS(=O)(=O)C5CC5)C[C@H]4/C=C\CCCCN(C)C(=O)[C@@H]3C2)c1` [Example 10, (3-Methoxyphenyl)-carbamic acid 4-cyclopropanesulfonylaminocarbonyl-13-methyl-2,14-dioxo-3,13-diaza-tricyclo[13.3.0.0*4,6*]octadec-7-en-17-yl ester], the EC50 was 1000 to 10000 nM. Work on `CN1CCCC/C=C\[C@@H]2C[C@@]2(C(=O)NS(=O)(=O)C2CC2)NC(=O)[C@@H]2C[C@@H](OC(=O)Nc3cccc(Oc4ccccc4)c3)C[C@H]2C1=O` [Example 11, (3-Phenoxy-phenyl)-carbamic acid 4-cyclopropanesulfonylaminocarbonyl-13-methyl-2,14-dioxo-3,13-diaza-tricyclo[13.3.0.0*4,6*]octadec-7-en-17-yl ester] yielded an EC50 of 1000 to 10000 nM. For `CN1CCCC/C=C\[C@@H]2C[C@@]2(C(=O)NS(=O)(=O)C2CC2)NC(=O)[C@@H]2C[C@@H](OC(=O)Nc3cccc(C#N)c3)C[C@H]2C1=O` [Example 12, (3-Cyano-phenyl)-carbamic acid 4-cyclopropanesulfonylaminocarbonyl-13-methyl-2,14-dioxo-3,13-diaza-tricyclo[13.3.0.0*4,6*]octadec-7-en-17-yl ester], the EC50 was 200 to 990 nM. Work on `CN1CCCC/C=C\[C@@H]2C[C@@]2(C(=O)NS(=O)(=O)C2(C)CC2)NC(=O)[C@@H]2C[C@@H](OC(=O)Nc3cccc(C#N)c3)C[C@H]2C1=O` [Example 13, (3-Cyanophenyl)-carbamic acid 13-methyl-4-(1-methylcyclopropanesulfonylamino-carbonyl)-2,14-dioxo-3,13-diaza-tricyclo[13.3.0.0*4,6*]octadec-7-en-17-yl ester] yielded an EC50 of 0.5 to 199 nM. Molecule `COc1cccc(NC(=O)O[C@@H]2C[C@H]3C(=O)N[C@]4(C(=O)NS(=O)(=O)C5(C)CC5)C[C@H]4/C=C\CCCCN(C)C(=O)[C@@H]3C2)c1` [Example 14, (3-Methoxy-phenyl)-carbamic acid 13-methyl-4-(1-methyl-cyclopropanesulfonyl-aminocarbonyl)-2,14-dioxo-3,13-diaza-tricyclo[13.3.0.0*4,6*]octadec-7-en-17-yl ester] has an EC50 of 200 to 990 nM. For `Cc1cccc(NC(=O)O[C@@H]2C[C@H]3C(=O)N[C@]4(C(=O)NS(=O)(=O)C5CC5)C[C@H]4/C=C\CCCCN(C)C(=O)[C@@H]3C2)c1` [Example 15, m-Tolyl-carbamic acid 4-cyclopropanesulfonylaminocarbonyl-13-methyl-2,14-dioxo-3,13-diaza-tricyclo[13.3.0.0*4,6*]octadec-7-en-17-yl ester], the EC50 was > 10000 nM. With `Cc1ccc(F)c(NC(=O)O[C@@H]2C[C@H]3C(=O)N[C@]4(C(=O)NS(=O)(=O)C5CC5)C[C@H]4/C=C\CCCCN(C)C(=O)[C@@H]3C2)c1` [Example 16, (2-Fluoro-5-methyl-phenyl)-carbamic acid 4-cyclopropanesulfonylaminocarbonyl-13-methyl-2,14-dioxo-3,13-diaza-tricyclo[13.3.0.0*4,6*]octadec-7-en-17-yl ester] the EC50 was 1000 to 10000 nM. `Cc1nc(-c2cccc(NC(=O)O[C@@H]3C[C@H]4C(=O)N[C@]5(C(=O)NS(=O)(=O)C6CC6)C[C@H]5/C=C\CCCCN(C)C(=O)[C@@H]4C3)c2)cs1` [Example 17, [3-(2-Methyl-thiazol-4-yl)-phenyl]-carbamic acid 4-cyclopropanesulfonylamino-carbonyl-13-methyl-2,14-dioxo-3,13-diaza-tricyclo[13.3.0.0*4,6*]octadec-7-en-17-yl ester] gave an EC50 of 1000 to 10000 nM. `Cc1ccc(C#N)c(NC(=O)O[C@@H]2C[C@H]3C(=O)N[C@]4(C(=O)NS(=O)(=O)C5CC5)C[C@H]4/C=C\CCCCN(C)C(=O)[C@@H]3C2)c1` [Example 18, (2-Cyano-5-methyl-phenyl)-carbamic acid 4-cyclopropanesulfonylaminocarbonyl-13-methyl-2,14-dioxo-3,13-diaza-tricyclo[13.3.0.0*4,6*]octadec-7-en-17-yl ester] was tested, and the EC50 was 200 to 990 nM.

These molecules were tested against T1, HCV NS3/4A protease complexes (full-length hepatitis C NS3 protease enzyme) (Hepatitis C virus genotype 1a, UniProt P27958) (assay: Inhibition assay (enzyme assay), depsipeptide substrate hydrolysis with NS4A cofactor). Details: 1 nM enzyme, 25 μM NS4A cofactor, 0.5 μM substrate, 30° C.
T1 construct: full-length hepatitis C NS3 protease enzyme
T1 sequence (P27958 1027-1657, one chain of several): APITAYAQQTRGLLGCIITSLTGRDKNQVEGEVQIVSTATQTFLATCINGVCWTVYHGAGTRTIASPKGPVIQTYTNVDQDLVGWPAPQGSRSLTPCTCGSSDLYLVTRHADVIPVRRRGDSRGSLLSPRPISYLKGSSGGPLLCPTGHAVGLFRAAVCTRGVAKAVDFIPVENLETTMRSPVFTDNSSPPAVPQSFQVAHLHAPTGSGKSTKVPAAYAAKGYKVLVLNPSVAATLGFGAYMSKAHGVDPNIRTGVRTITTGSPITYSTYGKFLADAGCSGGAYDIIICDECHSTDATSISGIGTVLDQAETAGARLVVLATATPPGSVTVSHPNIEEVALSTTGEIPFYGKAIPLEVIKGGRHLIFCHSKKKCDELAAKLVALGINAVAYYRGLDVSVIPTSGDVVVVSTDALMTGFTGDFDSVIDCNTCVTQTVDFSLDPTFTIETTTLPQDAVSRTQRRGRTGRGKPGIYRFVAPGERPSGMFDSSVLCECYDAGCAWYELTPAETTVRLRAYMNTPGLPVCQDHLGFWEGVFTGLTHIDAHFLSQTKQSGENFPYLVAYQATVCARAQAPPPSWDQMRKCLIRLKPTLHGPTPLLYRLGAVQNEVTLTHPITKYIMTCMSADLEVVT
Type: biochemical
Protocol: The aim of this in vitro assay was to measure the inhibition of HCV NS3/4A protease complexes by the compounds of the present invention. This assay provides an indication of how effective compounds of the present invention would be in inhibiting HCV NS3/4A proteolytic activity.
The inhibition of full-length hepatitis C NS3 protease enzyme was measured essentially as described in Poliakov, 2002 Prot Expression & Purification 25 363 371. Briefly, the hydrolysis of a depsipeptide substrate, Ac-DED(Edans)EEAbuψ[COO]ASK(Dabcyl)-NH2 (AnaSpec, San José, USA), was measured spectrofluorometrically in the presence of a peptide cofactor, KKGSVVIVGRIVLSGK (Åke Engström, Department of Medical Biochemistry and Microbiology, Uppsala University, Sweden). [Landro, 1997 #Biochem 36 9340-9348]. The enzyme (1 nM) was incubated in 50 mM HEPES, pH 7.5, 10 mM DTT, 40% glycerol, 0.1% n-octyl-D-glucoside, with 25 μM NS4A cofactor and inhibitor at 30° C. for 10 min, whereupon the reaction was initiated by addition of 0.5 μM substrate. Inhibitors were dissolved in DMSO, sonicated for 30 sec. and vortexed. The solutions were stored at −20° C. between measurements.
The final concentration of DMSO in the assay sample was adjusted to 3.3%. The rate of hydrolysis was corrected for inner filter effects according to published procedures [Liu, Analytical Biochemistry, 1999, vol. 267, pp. 331-335]. Ki values were estimated by non-linear regression analysis (GraFit, Erithacus Software, Staines, MX, UK), using a model for competitive inhibition and a fixed value for Km (0.15 μM). A minimum of two replicates was performed for all measurements.
`CN1CCCCC=CC2CC2(C(=O)NS(=O)(=O)C2CC2)NC(=O)C2CC(OC(=O)Nc3ccccc3C#N)CC2C1=O` (stereo not drawn) [Example 1, (2-Cyanophenyl)-carbamic acid 4-cyclopropanesulfonylaminocarbonyl-13-methyl-2,14-dioxo-3,13-diaza-tricyclo[13.3.0.0*4,6*]octadec-7-en-17-yl ester] showed a Ki of 30 to 100 nM. In the case of `CN1CCCC/C=C\[C@@H]2C[C@@]2(C(=O)NS(=O)(=O)C2CC2)NC(=O)[C@@H]2C[C@@H](OC(=O)Nc3ccccc3Oc3ccccc3)C[C@H]2C1=O` [Example 2, (2-Phenoxyphenyl)-carbamic acid 4-cyclopropanesulfonylaminocarbonyl-13-methyl-2,14-dioxo-3,13-diaza-tricyclo[13.3.0.0*4,6*]octadec-7-en-17-yl ester], the Ki is reported as 0.1 to 29.9 nM. `COc1ccccc1NC(=O)O[C@@H]1C[C@H]2C(=O)N[C@]3(C(=O)NS(=O)(=O)C4CC4)C[C@H]3/C=C\CCCCN(C)C(=O)[C@@H]2C1` [Example 3, (2-Methoxy-phenyl)-carbamic acid 4-cyclopropanesulfonylaminocarbonyl-13-methyl-2,14-dioxo-3,13-diaza-tricyclo[13.3.0.0*4,6*]octadec-7-en-17-yl ester] showed a Ki of 0.1 to 29.9 nM.

— US8383584B2, “HCV inhibiting macrocyclic phenylcarbamates” (Medivir AB, priority 2007, dated 2013)
